Reference: a melting point compilation (Tetko et al.; mined from patent text by program, amines drawn as free bases though some values may be those of a salt)

Compound	melting point [°C]
O=C(O)CN1CCN2c3ccccc3Cn3cccc3C2C1 (stereo unspecified)	249 to 250
CN1C(=O)N(C)C(=O)C(C(N)=O)(c2ccc(Cl)cc2)C1=O	225 to 227
CC(C)c1cccc(C(C)C)c1NC(=O)CNC(c1ccccc1)c1ccc([N+](=O)[O-])cc1 (stereo unspecified)	177 to 179
O=C1C(Cl)=C(c2ccccc2)C1(F)F	77.5 to 78
CS(=O)(=O)c1ccc(-n2cncc2-c2ccc(OC(F)(F)F)cc2)cc1	141 to 142
CC(C)(C)OC(=O)N1CCn2c(Cl)c(Br)c(C(N)=O)c2C1	214 to 216
CCCC(=O)c1cnc2c(C)cccc2c1Nc1ccc(Cl)cc1C	166 to 167
Cn1c([N+](=O)[O-])cnc1C1=NOC2OCCCC12 (stereo unspecified)	140 to 142
Cc1nn(C)c(Oc2ccc([N+](=O)[O-])cc2[N+](=O)[O-])c1C(=O)c1ccc(Cl)cc1Cl	190 to 192
CCc1nc2ncnn2c(N[C@H]2CC[C@@H](C(C)(C)C)CC2)c1Cl	120 to 122
O=C(NC1CCC(O)CC1)C1CC1 (stereo unspecified)	220 to 222
COC(=O)[C@@H]1CCCN1C(=O)Nc1cc(Cl)cc(Cl)c1	110 to 112
CCN1C(=O)C(=CC=C2C=C(c3ccc(OC)cc3)C=C3N2c2ccccc2C3(C)C)SC1=S	210 to 211
NC(=O)NCc1c[nH]c(=S)n1[C@H]1CCc2c(F)cc(F)cc2C1	258 to 260
COC(=O)c1cc(N)c(C)s1	90 to 91
CCOC(=O)C1(F)C(=O)NC(=O)NC1O/N=C\c1ccco1 (stereo unspecified)	152 to 153
CCOC(=O)C(NC(=O)NN1CC(=O)NC1=O)c1cccs1 (stereo unspecified)	151 to 155
C[C@@H](S[C@H]1CC[C@H](/C=C/C=C/c2ccc(C(F)(F)F)cc2)CC1)[C@](O)(Cn1cncn1)c1ccc(F)cc1F	74 to 76
COc1ccc(-c2cc(CN3CCN(C)CC3)c(=O)n(Cc3ccc(F)c(F)c3)n2)cc1F	135 to 136
O=[N+]([O-])c1ccc2c(c1)C1OC1CCO2 (stereo unspecified)	121 to 123
Nc1c(C(=O)c2ccccc2)oc2ccccc12	122 to 124
Cc1noc(NS(=O)(=O)c2ccccc2-c2ccccc2)c1Br	145 to 147
COC(=O)CCc1cnoc1-c1ccc(Cl)c(F)c1	53 to 54
COC(=O)CC(c1ccc(OC)c(OC)c1)N1C(=O)C2C=CCCC2C1=O (stereo unspecified)	100 to 102

Compound	melting point [°C]
COC(=O)C(C(=O)OC)c1cccc2c1NC(=O)C2=O	137 to 140
CCc1cc(OCc2ccc(-c3ccccc3-c3nnnn3-c3ccc([N+](=O)[O-])cc3)cc2)c2ccccc2n1	204 to 206
FC(F)(F)c1cccc(Oc2cccc(-c3nnc(Nc4ccc(Cl)c(Cl)c4)s3)c2)c1	212 to 213
CC(=O)c1cccc2c1ccn2C	63 to 64
O=C(N[C@H](Cc1ccc(C(F)(F)F)cc1)[C@@H](O)c1ccc(F)cc1)c1ccc(F)c2ccccc12 (racemic)	210 to 211
Fc1cccc(CCc2nnc(-c3ccc4c(c3)CCO4)o2)c1	85 to 86
Clc1cc2nc(Cl)n(Cc3ccccc3)c2cc1Cl	175 to 176
CC(C)(C)c1cc(C2SC(CC(=O)N3CCCC3)C(=O)N2CCCCl)cc(C(C)(C)C)c1O (stereo unspecified)	193 to 194
COCc1c(C=O)ncc2c1c1c(OCc3ccccc3)cccc1n2S(=O)(=O)c1ccc(C)cc1	125 to 127
CN(C)C1CN(c2cc3nc4c(cc3cc2F)c(=O)c(C(=O)O)cn4C2CC2)C1	264
CCCc1oc2ccc([N+](=O)[O-])cc2c1C(=O)c1ccc(OC)cc1	73
Oc1ccc2c(c1O)OCC(c1ccccc1)C2 (stereo unspecified)	138
CCCCCCNC(=O)Oc1ccc2c(c1)CCCN2C	50
C#CCC(NC(=O)c1ccc(C)cc1)C(C)=O (stereo unspecified)	65 to 67
CSc1ccc(-c2nc(SC)c(C#N)c(=O)n2-c2ccc(Cl)cc2)cc1	203 to 205
CC1(CO)C(=O)N(c2ccc(C#N)c(C(F)(F)F)c2)C(=O)N1CC#N (stereo unspecified)	171
CC1=C(C#N)C(=C(C#N)C#N)OC1(C)c1ccc(Cl)c(Cl)c1 (stereo unspecified)	226 to 229
CN1CCN(c2nn(C(=O)c3ccccc3)c3ccccc23)CC1	104 to 106
Cc1ccc(S(=O)(=O)NN=C2CCCC(=O)C2Cc2ccccc2)cc1 (stereo unspecified)	172 to 173
Brc1nc2ncnc(NCc3ccccc3)c2[nH]1	233 to 235
CCCc1c(C(=O)C(C)C)c2ccc(C(N)=O)cc2n1Cc1ccc(Br)cc1Cl	199 to 201
CC[C@H]1C(=O)N(S(=O)(=O)c2ccc3ccccc3c2)[C@H]2CCN(C(=O)OCc3ccccc3)[C@H]12 (relative stereo)	156
CCOC(=O)N1CCN(Cc2ccc(O)c3ncccc23)CC1	92 to 93
CC(C)(C)OC(=O)N1CC[C@H](CNCc2ccccc2)[C@@H](O)C1	91

Compound	melting point [°C]
N=C(N)c1ccc(-n2ccn(-c3ccc(C=CC(=O)O)cc3)c2=O)cc1	> 350
CC(=O)OC1CCN(c2ccc3[nH]c(=O)ccc3c2)CC1	245 to 250
N#Cc1cnc2c(sc3ccccc32)c1Nc1ccc(Cl)cc1Cl	260 to 262
Cc1cc(OC/C=C(/c2ccc(Cl)cc2)c2ccc(C#CCN3CCC(CO)CC3)cc2)ccc1OCC(=O)O	94 to 104
O=C(Nc1ccc(NS(=O)(=O)c2ccc(Cl)c(Cl)c2)cc1)Nc1ccc([N+](=O)[O-])cc1	207 to 209
Clc1nc(Cl)nc(N2CCc3ccccc32)n1	254 to 256
CCCCc1ccc(/C(Cl)=C/c2ccc(Br)cc2)cc1	59 to 61
NCCn1nc2c3c(c(Cl)ccc31)C(=O)c1c(OCc3ccccc3)ccc(OCc3ccccc3)c1-2	176 to 178
COC(=O)c1ccc(F)c(S(N)(=O)=O)c1	127 to 129
O=c1cc(-c2ccccc2)oc2cccc(F)c12	144 to 145
CCC12CCC(=O)C=C1c1c(cc(OC(C)C(=O)OC3COC(C)(C)O3)c(Cl)c1Cl)C2 (stereo unspecified)	143 to 145
Cc1ccc2nc3[nH]c(=O)[nH]c3cc2c1C	> 300
CSc1c(C(=O)NN=Cc2ccc(Cl)cc2)[nH]c2ccccc12	232 to 235
CNC1=CC=CC(OCCCN2CCC(c3noc4cc(F)ccc34)CC2)(C(C)=O)C1 (stereo unspecified)	151 to 153
C(=C\c1nc(COc2ccc(CCCn3cnc(-c4ccccc4)c3-c3ccccc3)cc2)co1)/c1ccccc1	137 to 138
CSCC[C@H](NC(=O)[C@H](CC(C)C)NC(=O)OCc1ccccc1)C(=O)CSC	61 to 67
O=C(NCc1ccc(Cl)cc1)c1cn(C2CC2)c2oc(CCl)cc2c1=O	174 to 176
CCCCCC(O)C1C(=O)NC(C(=O)SCCNC(C)=O)(C(O)C2C=CCCC2)C1(C)O (stereo unspecified)	80
CN1CCC(=C2c3ccccc3CCn3ncnc32)CC1	127
CC1(C)CC(N2CCCC2)=CC(=C(C#N)S(C)(=O)=O)C1	260 to 261
Cc1cc2c(cc1N1CCc3ccccc31)OC(=O)C2C (stereo unspecified)	176 to 178
CCCCc1nc(Cl)c(C=O)n1Cc1ccc(-c2nc3ccccn3c2C(=O)O)cc1	120 to 123
O=[N+]([O-])c1ccc(C=NCCc2cccs2)cc1	83.9 to 84.4
